# In paper PMC10683025, “Discovery of a Hydroxylamine-Based Brain-Penetrant EGFR Inhibitor for Metastatic Non-Small-Cell Lung Cancer” (Journal of Medicinal Chemistry, 2023):
# Assays:
# TA1535 = experiment: Background bacterial cytotoxicity assay; parameters: species or system Salmonella; key to Flag: A cytotoxicity value of less than 60% is flagged and the compound is considered as toxic (denoted as Cytox.); A hyphen (-) denotes no cytotoxicity at the respective concentration
# Experimental: (§1) Compounds were assessed for mutagenicity at the Eurofins Panlabs in 384-well plates using four Salmonella strains: TA98, to probe for frameshift mutation (with quercetin as control), TA100 and TA1535, to probe for base pair insertions/deletions (with streptozotocin as control), and TA1537, to probe for frameshift mutations (with aminacridine as control) as previously described.[78] Each compound was incubated at 37 °C for 96 h at four different concentrations (5, 10, 50, and 100 μM), with each concentration tested using 48 replicates, both with and without rat liver S9 metabolic activation. A concurrent bacterial cytotoxicity assay was run at 0.6, 1.2, 2.5, 5, 10, 25, 50, and 100 μM to rule out false negatives. Bacterial cytotoxicity was expressed as percent of control growth (OD650). Compounds with growth of less than 60% control were flagged and considered bacterial cytotoxic. […] Significances of the positive counts between the treatment and control were determined using a one-tailed Fisher’s exact test.
# TA100 = experiment: Background bacterial cytotoxicity assay; parameters: species or system Salmonella; key to Flag: A cytotoxicity value of less than 60% is flagged and the compound is considered as toxic (denoted as Cytox.); A hyphen (-) denotes no cytotoxicity at the respective concentration
# Experimental: as §1
# TA98 = experiment: Background bacterial cytotoxicity assay; parameters: species or system Salmonella; key to Flag: A cytotoxicity value of less than 60% is flagged and the compound is considered as toxic (denoted as Cytox.); A hyphen (-) denotes no cytotoxicity at the respective concentration
# Experimental: as §1
# [1] = system: luciferase-tagged HCC827 cells implanted into the brains; experiment: Intracranial PDX model; format: in vivo, BALB/c nude mice; settings: 10 mg/kg PO b.i.d.
# Experimental: Animal experiments were performed at Pharmaron, Inc. and animal use was approved by Pharmaron’s Institutional Animal Care and Use Committee (IACUC) in Pharmaron (Pharmaron IACUC, Protocol #PK-M-07182022, #PK-R-06012022, and #ON-CELL-XEN-06012022) following the guidance of AAALAC. Six- to eight-week-old male Sprague-Dawley rats (approximately 200–300 g) obtained from Si Bei Fu Laboratory Animal Technology Co., six- to eight-week-old male CD1 mice (approximately 20–30 g) obtained from Si Bei Fu Laboratory Animal Technology Co., and six- to eight-week-old female BALB/c nude mice (approximately 20–30 g) obtained from Si Bei Fu Laboratory Animal Technology Co., were used in the pharmacokinetic studies. Six- to eight-week-old female BALB/c nude mice (approximately 18–22 g) obtained from Beijing Anikeeper Biotech Co., Ltd. were used in the intracranial PDX study. Animals were housed at 20–25 °C with humidity ranging from 40 to 70% relative humidity, were exposed to 12 h light and dark cycles, and were supplied with food and water ab libitum.
# HCC827 cells stably expressing luciferase (HCC827-luc) were injected intracranially. Briefly, 3 × 10^5 HCC827-luc tumor cells suspended in 2 μL of RPMI1640 medium were injected into the right forebrain of anesthetized mice (anesthetic: intramuscular injection of ZoletlTM 50 (Virbac S.A)). Mice were imaged biweekly using IVIS Lumina III (PerkinElmer). Images were acquired 10 min post intraperitoneal (IP) injection with 15 mg/mL (at 5 μL/g body weight) of D-luciferin in anesthetized mice (anesthetic: 1–2% isoflurane inhalation). On day 20 postcellular inoculation, mice were randomized into 2 treatment groups (n = 10 mice per group): (1) 1% methylcellulose as vehicle control and (2) 9 (10 mg/kg) (formulation: 1% methylcellulose), PO, b.i.d. (twice daily) dosing (12 h intervals) × 7 days for 21 days. Body weights of all mice were measured biweekly throughout the study and BW change, expressed in % was calculated using the following formula: [drawing 5] where BWDay X is the BW on a given day and BWDay 0 is BW on day 0 (initiation of treatment).
# DRAK1 = target: T1, DRAK1 (Homo sapiens, UniProt Q9UEE5); experiment: KINOMEScan; format: binding; settings: DRAK1, 1 μM; read-out: Percent Control
# T1 construct: purchased Eurofins DiscoverX (contract assay)
# T1 sequence (Q9UEE5 1-414): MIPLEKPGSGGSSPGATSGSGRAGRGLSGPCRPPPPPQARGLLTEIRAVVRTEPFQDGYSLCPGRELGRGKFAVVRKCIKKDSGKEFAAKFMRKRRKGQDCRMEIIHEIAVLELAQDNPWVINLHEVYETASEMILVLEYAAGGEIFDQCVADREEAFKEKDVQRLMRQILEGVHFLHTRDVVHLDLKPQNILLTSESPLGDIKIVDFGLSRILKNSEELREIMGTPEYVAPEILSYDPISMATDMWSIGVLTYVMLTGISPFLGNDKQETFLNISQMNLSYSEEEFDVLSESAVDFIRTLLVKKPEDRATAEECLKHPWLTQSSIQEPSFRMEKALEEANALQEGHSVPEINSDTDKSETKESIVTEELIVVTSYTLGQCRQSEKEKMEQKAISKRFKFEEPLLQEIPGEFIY
# From the text: Percent control was mapped onto the kinome tree using TREEspot.
structure (smiles),measurement,setting,value
"COc1cc2ncnc(Nc3cccc(Cl)c3F)c2cc1OCCON1CCN(C)CC1 [Compound 9, N-(3-Chloro-2-fluorophenyl)-7-methoxy-6-(2-((4-methylpiperazin-1-yl)oxy)ethoxy)quinazolin-4-amine]",Flag,"TA1535; TA1535-S9, 1.0E-04 M",-
same,Mean % Control (n = 3),"TA1535; TA1535-S9, 1.0E-04 M",78.4%
same,Flag,"TA1535; TA1535-S9, 1.0E-05 M",-
same,Mean % Control (n = 3),"TA1535; TA1535-S9, 1.0E-05 M",99.4%
same,Flag,"TA1535; TA1535-S9, 1.2E-06 M",-
same,Mean % Control (n = 3),"TA1535; TA1535-S9, 1.2E-06 M",120.4%
same,Flag,"TA1535; TA1535-S9, 2.5E-05 M",-
same,Mean % Control (n = 3),"TA1535; TA1535-S9, 2.5E-05 M",97.6%
same,Flag,"TA1535; TA1535-S9, 2.5E-06 M",-
same,Mean % Control (n = 3),"TA1535; TA1535-S9, 2.5E-06 M",101.2%
same,Flag,"TA1535; TA1535-S9, 5.0E-05 M",-
same,Mean % Control (n = 3),"TA1535; TA1535-S9, 5.0E-05 M",85.7%
same,Flag,"TA1535; TA1535-S9, 5.0E-06 M",-
same,Mean % Control (n = 3),"TA1535; TA1535-S9, 5.0E-06 M",108.1%
same,Flag,"TA1535; TA1535-S9, 6.0E-07 M",-
same,Mean % Control (n = 3),"TA1535; TA1535-S9, 6.0E-07 M",98.9%
same,Flag,"TA100; TA100-S9, 1.0E-04 M",Cytox. (A cytotoxicity value of less than 60% is flagged and the compound is considered as toxic (denoted as Cytox.))
same,Mean % Control (n = 3),"TA100; TA100-S9, 1.0E-04 M",34.0%
same,Flag,"TA100; TA100-S9, 1.0E-05 M",-
same,Mean % Control (n = 3),"TA100; TA100-S9, 1.0E-05 M",90.3%
same,Flag,"TA100; TA100-S9, 1.2E-06 M",-
same,Mean % Control (n = 3),"TA100; TA100-S9, 1.2E-06 M",91.2%
same,Flag,"TA100; TA100-S9, 2.5E-05 M",-
same,Mean % Control (n = 3),"TA100; TA100-S9, 2.5E-05 M",80.9%
same,Flag,"TA100; TA100-S9, 2.5E-06 M",-
same,Mean % Control (n = 3),"TA100; TA100-S9, 2.5E-06 M",89.5%
same,Flag,"TA100; TA100-S9, 5.0E-05 M",-
same,Mean % Control (n = 3),"TA100; TA100-S9, 5.0E-05 M",67.3%
same,Flag,"TA100; TA100-S9, 5.0E-06 M",-
same,Mean % Control (n = 3),"TA100; TA100-S9, 5.0E-06 M",93.2%
same,Flag,"TA100; TA100-S9, 6.0E-07 M",-
same,Mean % Control (n = 3),"TA100; TA100-S9, 6.0E-07 M",91.6%
same,Flag,"TA98; TA98-S9, 1.0E-04 M",-
same,Mean % Control (n = 3),"TA98; TA98-S9, 1.0E-04 M",84.2%
same,Flag,"TA98; TA98-S9, 1.0E-05 M",-
same,Mean % Control (n = 3),"TA98; TA98-S9, 1.0E-05 M",91.1%
same,Flag,"TA98; TA98-S9, 1.2E-06 M",-
same,Mean % Control (n = 3),"TA98; TA98-S9, 1.2E-06 M",92.3%
same,Flag,"TA98; TA98-S9, 2.5E-05 M",-
same,Mean % Control (n = 3),"TA98; TA98-S9, 2.5E-05 M",94.8%
same,Flag,"TA98; TA98-S9, 2.5E-06 M",-
same,Mean % Control (n = 3),"TA98; TA98-S9, 2.5E-06 M",91.7%
same,Flag,"TA98; TA98-S9, 5.0E-05 M",-
same,Mean % Control (n = 3),"TA98; TA98-S9, 5.0E-05 M",87.8%
same,Flag,"TA98; TA98-S9, 5.0E-06 M",-
same,Mean % Control (n = 3),"TA98; TA98-S9, 5.0E-06 M",95.7%
same,Flag,"TA98; TA98-S9, 6.0E-07 M",-
same,Mean % Control (n = 3),"TA98; TA98-S9, 6.0E-07 M",89.0%
same,mean body weight loss,[1]; 21-day treatment window,≤ 10%
same,adverse clinical events,[1]; 21 days,no adverse clinical events were observed
same,intracranial tumor response relative to vehicle control (bioluminescence),"[1]; 21 days, P = 0.0059",profound tumor regression
same,remaining binding at 1 µM,DRAK1,8.3%
